Data set [1] is described as follows: Solubility and appearance of FF-MAS in water/ethanol containing HSA before evaporation. The format is physicochemical. Particulars: Example 3; ethanol/water mixture containing HSA. How it is done:
Prepare a saturated ethanolic solution of FF-MAS. Blend with an aqueous solution of the additive in the ration 1:2,5. By visual inspection control that surplus FF-MAS is available in the solution. Rotate the solution for 24 hours at room temperature. Filter the solution through 0,22 […] filter, determine the content of FF-MAS by HPLC and calculate the solubility. Transfer 350μl to 4-well dish and evaporate to dryness at room temperature. Add 500μl MEM AL- PHA medium (Gibcobal). If a clear solution is obtained within half an hour, the composition is tested on oocytes obtained from immature female mice. % GVB obtained is at least 50%, preferable 80%, vide example 1.
In this example, 3 products were prepared. Referring to the table below, the stock solution of FF-MAS used for product 1, 2, and 3 contained 50, 500 and 3330 μg/ml, respectively. For each of the products, the stock solution of HSA contained 20% HSA. The amount of said stock solutions used is stated in the table. For example, for product 1, 400 μl of the FF-MAS stock solution was mixed with 1000 μl of the HSA stock solution. After mixing of these stock solutions, the solutions were clear, and no precipitation was observed therein. After mixing, the amount thereof stated in the table was transferred to 4-well multi-dishes (Nuclon, Denmark). […]

The nature of data set [2]: Solubility of FF-MAS in water, ethanol and ethanol/water. The format is physicochemical. How it is done: The solubility of a preferred MAS, i.e., FF-MAS, in water is very low, i.e., approximately 20 picogram/ml (corresponding to 2×10^−5 μg/ml), and in ethanol the solubility is substantially higher, i.e., approximately 4 mg/ml. According to our preliminary investigations, the highest solubility of FF-MAS in a mixture of ethanol and water (1:2.5) is approximately 0.4 mg/ml.

In brackets after ≈: the same amount, converted by molar mass. Like-named read-outs stand apart in the source and are kept apart here.

Turning to `CC(C)=CCC[C@@H](C)[C@H]1CC=C2C3=C(CC[C@@]21C)[C@@]1(C)CC[C@H](O)C(C)(C)[C@@H]1CC3` [FF-MAS, 4,4-dimethyl-5 α-cholesta-8,14,24-triene-3β-ol], in data set [1], the “highest concentration of FF-MAS dissolved” value was 0.95 mg/mL. Moreover, the solubility was approximately 4000 µg/mL (≈ 9.74 mM) in data set [2] (ethanol, organic solvent or mixture, read-out: solubility in ethanol); approximately 400 µg/mL (≈ 0.974 mM) in data set [2] (ethanol/water (1:2.5), aqueous with cosolvent or surfactant or cyclodextrin, ethanol and water (1:2.5), no additive, preliminary investigations, read-out: highest solubility in a mixture of ethanol and water (1:2.5)). The solubility in water result in data set [2] (water) is “approximately 20 picogram/ml”.
